Experimental data published in US20180118718A1, “Substituted Quinoxaline Derivatives” (Selvita S.A., priority 2015, published 2018).
Where a name gives a salt, the structure may show the parent alone.

Target: T1, Human recombinant His-tagged PFKFB3 (Homo sapiens, UniProt Q16875)
T1 construct: His; made in house
Test: PFKFB3 IC50 Determination Assay (in vitro kinase assay, modified ADP-Glo system)
Type: biochemical
Details: ATP 20 μM and fructose-6-phosphate 2 μM (Km), 25 nM PFKFB3, 2 h, rt, ADP-Glo luminescence
Protocol: PFKFB3 IC50 Determination Assay
In vitro kinase assay used to determine IC50 values for tested inhibitors is based on a modified ADP-Glo™ system (Promega) and consists of two parts:
1. Kinase reaction—performed in optimized conditions. At this step PFKFB3 phosphorylates its substrate Fructose-6-phosphate using ATP as a source of phosphate to produce Fructose-2,6-bisphosphate and ADP. Reaction is performed at Km values for ATP and substrate using optimized buffer composition and time of the reaction. Human recombinant His-tagged PFKFB3 (PFKFB3 BATCH II SEC) with confirmed activity is produced and purified in-house. 2. Detection of ADP as a product of the reaction using ADP-Glo™ system. This part is conducted by using the commercially available kit ADP-Glo™ Kinase Assay (Promega, cat. No# V9103) according to manufacturer's instruction, modified by 5x dilutions of assay reagents (both ADP-Glo™ Reagent and Kinase Detection Solution).
Test compounds are dissolved in DMSO and then transferred to the V-bottom 96-well plate.
15 μL per well of Mix 1 is transferred to assay wells of 96-well white plate. […] Total reaction volume is 30 μL per well. Samples are tested in duplicates. Final concentration of DMSO in the reaction is 6.7%. Conditions needed for performing PFKFB3 (PFKFB3 BATCH II SEC) in vitro kinase assay are given below:
This protocol is based on Technical Bulletin, ADP-Glo™ Kinase Assay (Promega) and is adapted to 96-well plate containing 30 μL reaction mixture:
30 μL of 5x diluted ADP-Glo™ Reagent is added to each well of 96-well plate containing 30 μL of reaction mixture. The plate is incubated for 90 minutes on a shaker at RT. 60 μL of 5x diluted Kinase Detection Solution is added to each well of 96-well plate containing 60 μL of the solution (ratio of kinase reaction volume to ADP-Glo™ Reagent volume to Kinase Detection Solution volume is maintained at 1:1:2). Plate is incubated for 40 minutes on a shaker at RT, protected from light. Luminescence is measured in the plate reader Synergy 2 (BioTek).
Luminescent readouts for compounds tested in 10 concentrations (routinely from 100 μM to […], […] serial dilutions) in duplicates, as well as for positive control, are first normalized to no-substrate negative control by its subtraction. In the next step, % of normalized positive control is calculated for each data point and plotted against test compound concentration:
% of control percent of positive control normalized to no-substrate negative control Lumcpd luminescence of test compound Lumneg luminescence of no-substrate negative control Lumpos luminescence of positive control
IC50 parameter is determined by the GraphPad Prism 5.0 software [log(inhibitor) vs. response −Variable slope (four parameters)].

T1 sequence (Q16875 whole entry): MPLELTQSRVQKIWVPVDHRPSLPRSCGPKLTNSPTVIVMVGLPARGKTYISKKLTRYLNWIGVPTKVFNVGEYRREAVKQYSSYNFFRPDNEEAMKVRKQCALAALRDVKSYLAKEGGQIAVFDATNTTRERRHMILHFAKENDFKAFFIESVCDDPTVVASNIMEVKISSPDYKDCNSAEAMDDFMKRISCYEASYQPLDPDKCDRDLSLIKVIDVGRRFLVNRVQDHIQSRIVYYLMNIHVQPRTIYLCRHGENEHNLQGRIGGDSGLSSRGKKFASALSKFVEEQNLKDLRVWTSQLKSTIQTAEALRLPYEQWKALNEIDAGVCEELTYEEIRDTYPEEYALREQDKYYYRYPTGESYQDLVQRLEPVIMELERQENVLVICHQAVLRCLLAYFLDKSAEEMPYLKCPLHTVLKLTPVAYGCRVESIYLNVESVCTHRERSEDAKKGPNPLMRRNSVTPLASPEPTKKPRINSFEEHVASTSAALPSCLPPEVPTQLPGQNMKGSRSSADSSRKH

Row | IC50 | Compound
1 | 1 to 1000 nM | Cn1ccc2ccc(-c3cc(Nc4cnccc4C(=O)Nc4ccccc4)cc4nccnc34)cc21 [Example 96, 3-{[8-(1-Methyl-1H-indol-6-yl)quinoxalin-6-yl]amino}-N-phenylpyridine-4-carboxamide]
2 | 1 to 1000 nM | Cc1csc2ccc(-c3cc(Nc4cnccc4C(N)=O)cc4nccnc34)cc12 [Example 205, 3-{[8-(3-Methyl-1-benzothiophen-5-yl)quinoxalin-6-yl]amino}pyridine-4-carboxamide]
3 | 1 to 1000 nM | Cn1ccc2ccc(-c3cc(N4CCc5ccncc54)cc4nccnc34)cc21 [Example 2, 5-(1-Methyl-1H-indol-6-yl)-7-{1H,2H,3H-pyrrolo[2,3-c]pyridin-1-yl}quinoxaline]
4 | 1 to 1000 nM | CN1CCC(NC(=O)c2ccccc2Nc2cc(-c3ccc4ccn(C)c4c3)c3nccnc3c2)C1 (stereo not drawn) [Example 183, 2-{[8-(1-Methyl-1H-indol-6-yl)quinoxalin-6-yl]amino}-N-(1-methylpyrrolidin-3-yl)benzamide]
5 | 1 to 1000 nM | CN(C)Cc1ccccc1Nc1cc(-c2ccc3ccn(C)c3c2)c2nccnc2c1 [Example 176, N-{2-[(Dimethylamino)methyl]phenyl}-8-(1-methyl-1H-indol-6-yl)quinoxalin-6-amine]
6 | 1000 to 10000 nM | Cn1ccc2cc(-c3cc(Nc4cnccc4C(N)=O)cc4nccnc34)ccc21 [Example 29, 3-{[8-(1-Methyl-1H-indol-5-yl)quinoxalin-6-yl]amino}pyridine-4-carboxamide]
7 | 1 to 1000 nM | Cn1ccc2ccc(-c3cc(Nc4cc(C#N)ccc4S(C)(=O)=O)cc4nccnc34)cc21 [Example 25, 4-Methanesulfonyl-3-{[8-(1-methyl-1H-indol-6-yl)quinoxalin-6-yl]amino}benzonitrile]
8 | 10000 to 100000 nM | CS(=O)(=O)c1ccncc1Nc1cc(-c2cccc(NC(=O)C3CCCN3)c2)c2nccnc2c1 (stereo not drawn) [Example 165, N-(3-{7-[(4-Methanesulfonylpyridin-3-yl)amino]quinoxalin-5-yl}phenyl)pyrrolidine-2-carboxamide]
9 | 1000 to 10000 nM | COC(=O)c1ccc(S(C)(=O)=O)c(Nc2cc(-c3ccc4ccn(C)c4c3)c3nccnc3c2)c1 [Example 115, Methyl 4-methanesulfonyl-3-{[8-(1-methyl-1H-indol-6-yl)quinoxalin-6-yl]amino}benzoate]
10 | 1 to 1000 nM | Cc1cc(Br)ccc1-c1cc(Nc2cnccc2S(C)(=O)=O)cc2nccnc12 [Example 212, 8-(4-Bromo-2-methylphenyl)-N-(4-methanesulfonylpyridin-3-yl)quinoxalin-6-amine]
11 | 10000 to 100000 nM | Cn1ccc2cc(-c3cc(Nc4cc(CN)ccc4S(C)(=O)=O)cc4nccnc34)ccc21 [Example 38, N-[5-(Aminomethyl)-2-methanesulfonylphenyl]-8-(1-methyl-1H-indol-5-yl)quinoxalin-6-amine]
12 | 1000 to 10000 nM | Cc1cccc(-c2cc(Nc3cnccc3S(C)(=O)=O)cc3nccnc23)c1 [Example 51, N-(4-Methanesulfonylpyridin-3-yl)-8-(3-methylphenyl)quinoxalin-6-amine]
13 | 1000 to 10000 nM | CCc1cc(CC)cc(-c2cc(Nc3cnccc3S(C)(=O)=O)cc3nccnc23)c1 [Example 192, 8-(3,5-Diethylphenyl)-N-(4-methanesulfonylpyridin-3-yl)quinoxalin-6-amine]
14 | 1 to 1000 nM | CS(=O)(=O)c1ccncc1Nc1cc(-c2ccc(F)cc2)c2nccnc2c1 [Example 188, 8-(4-Fluorophenyl)-N-(4-methanesulfonylpyridin-3-yl)quinoxalin-6-amine]
15 | 10000 to 100000 nM | CS(=O)(=O)c1ccncc1Nc1cc(-c2ccc3nc[nH]c3c2)c2nccnc2c1 [Example 61, 8-(1H-1,3-Benzodiazol-5-yl)-N-(4-methanesulfonylpyridin-3-yl)quinoxalin-6-amine]
16 | 1 to 1000 nM | Cn1ccc2ccc(-c3cc(Nc4cnccc4C(=O)Nc4cccnc4)cc4nccnc34)cc21 [Example 207, 3-{[8-(1-Methyl-1H-indol-6-yl)quinoxalin-6-yl]amino}-N-(pyridin-3-yl)pyridine-4-carboxamide]
17 | 10000 to 100000 nM | CN(C)c1nc2cc(-c3cc(Nc4cnccc4S(C)(=O)=O)cc4nccnc34)ccc2s1 [Example 201, 8-[2-(Dimethylamino)-1,3-benzothiazol-5-yl]-N-(4-methanesulfonylpyridin-3-yl)quinoxalin-6-amine]

Row | IC50 | Compound
18 | 10000 to 100000 nM | Cc1nc2cc(-c3cc(Nc4cnccc4S(C)(=O)=O)cc4nccnc34)ccc2s1 [Example 169, N-(4-methanesulfonylpyridin-3-yl)-8-(2-methyl-1,3-benzothiazol-5-yl)quinoxalin-6-amine]
19 | 10000 to 100000 nM | CCOc1cccc(-c2cc(Nc3cnccc3S(C)(=O)=O)cc3nccnc23)c1 [Example 129, 8-(3-Ethoxyphenyl)-N-(4-methanesulfonylpyridin-3-yl)quinoxalin-6-amine]
20 | 1 to 1000 nM | Cc1coc2ccc(-c3cc(Nc4cnccc4C#N)cc4nccnc34)cc12 [Example 24, 3-{[8-(3-methyl-1-benzofuran-5-yl)quinoxalin-6-yl]amino}pyridine-4-carbonitrile]
21 | 1000 to 10000 nM | CC(=O)Nc1cc2cc(-c3cc(Nc4cnccc4S(C)(=O)=O)cc4nccnc34)ccc2s1 [Example 200, N-(5-{7-[(4-Methanesulfonylpyridin-3-yl)amino]quinoxalin-5-yl}-1-benzothiophen-2-yl)acetamide]
22 | 1 to 1000 nM | Cn1ccc2ccc(-c3cc(Nc4cc(N)ccc4S(C)(=O)=O)cc4nccnc34)cc21 [Example 36, 6-Methanesulfonyl-N1-[8-(1-methyl-1H-indol-6-yl)quinoxalin-6-yl]benzene-1,3-diamine]
23 | 1 to 1000 nM | Cn1ccc2ccc(-c3cc(Nc4ccccc4S(C)(=O)=O)cc4nccnc34)nc21 [Example 21, N-(2-Methanesulfonylphenyl)-8-{1-methyl-1H-pyrrolo[2,3-b]pyridin-6-yl}quinoxalin-6-amine trifluoroacetate]
24 | 10000 to 100000 nM | Cn1nnc2ccc(-c3cc(Nc4cnccc4S(C)(=O)=O)cc4nccnc34)cc21 [Example 170, N-(4-Methanesulfonylpyridin-3-yl)-8-(1-methyl-1H-1,2,3-benzotriazol-6-yl)quinoxalin-6-amine]
25 | 1000 to 10000 nM | Cn1ccc2ccc(-c3cc(Nc4ccncc4C#N)cc4nccnc34)cc21 [Example 145, 4-{[8-(1-Methyl-1H-indol-6-yl)quinoxalin-6-yl]amino}pyridine-3-carbonitrile]
26 | 1 to 1000 nM | Cc1coc2ccc(-c3cc(Nc4c[n+]([O-])ccc4S(C)(=O)=O)cc4nccnc34)cc12 [Example 72, 4-Methanesulfonyl-3-{[8-(3-methyl-1-benzofuran-5-yl)quinoxalin-6-yl]amino}pyridin-1-ium-1-olate]
27 | 1000 to 10000 nM | CNc1nc2cc(-c3cc(Nc4cnccc4S(C)(=O)=O)cc4nccnc34)ccc2s1 [Example 202, N-(4-Methanesulfonylpyridin-3-yl)-8-[2-(methylamino)-1,3-benzothiazol-5-yl]quinoxalin-6-amine]
28 | 1 to 1000 nM | Cn1ccc2ccc(-c3cc(Nc4cc(Br)ccc4S(C)(=O)=O)cc4nccnc34)cc21 [Example 10, N-(5-Bromo-2-methanesulfonylphenyl)-8-(1-methyl-1H-indol-6-yl)quinoxalin-6-amine]
29 | 1 to 1000 nM | Cn1ccc2ccc(-c3cc(Nc4cc(C(=O)NN)ccc4S(C)(=O)=O)cc4nccnc34)cc21 [Example 119, 4-Methanesulfonyl-3-{[8-(1-methyl-1H-indol-6-yl)quinoxalin-6-yl]amino}benzohydrazide]
30 | 1 to 1000 nM | CS(=O)(=O)c1ccncc1Nc1cc(-c2ccc3nc(N)sc3c2)c2nccnc2c1 [Example 174, 8-(2-Amino-1,3-benzothiazol-6-yl)-N-(4-methanesulfonylpyridin-3-yl)quinoxalin-6-amine]
31 | 1000 to 10000 nM | CN(c1cc(-c2ccc3ccn(C)c3c2)c2nccnc2c1)c1cnccc1C(N)=O [Example 95, 3-{Methyl[8-(1-methyl-1H-indol-6-yl)quinoxalin-6-yl]amino}pyridine-4-carboxamide]
32 | 10000 to 100000 nM | CS(=O)(=O)c1ccncc1Nc1cc(-c2ccc(S(F)(F)(F)(F)F)cc2)c2nccnc2c1 [Example 213, N-(4-Methanesulfonylpyridin-3-yl)-8-[4-(pentafluoro-λ^6-sulfanyl)phenyl]quinoxalin-6-amine]
33 | 10000 to 100000 nM | Cn1ccc2cc(-c3cc(Nc4cnccc4-c4cncnc4)cc4nccnc34)ccc21 [Example 33, 8-(1-Methyl-1H-indol-5-yl)-N-[4-(pyrimidin-5-yl)pyridin-3-yl]quinoxalin-6-amine]
